From patent US20250296955A1, “PIN1 TARGETING COMPOUNDS AND DEGRADERS AND METHODS THEREOF” (The Regents of the University of California, priority 2024, published 2025)
Where two headings read alike, the source gives them in different places. Where a SMILES comes first, the peptide text is derived from it. [ ]: non-standard residue; d: D form. The star is where a group is joined. Phe(4-NO2) = N[C@@H](Cc1ccc([N+](=O)[O-])cc1)C(=O)O; Trp(5-OH) = N[C@@H](Cc1c[nH]c2ccc(O)cc12)C(=O)O; pY = N[C@@H](Cc1ccc(OP(=O)(O)O)cc1)C(=O)O; Phe(3-CN) = N#Cc1cccc(C[C@H](N)C(=O)O)c1; Phe(4-CN) = N#Cc1ccc(C[C@H](N)C(=O)O)cc1; mTyr = N[C@@H](Cc1cccc(O)c1)C(=O)O; Pip = O=C(O)[C@@H]1CCCCN1; ClAc = O=C(CCl)*

How the values were obtained:
[1] = molecular target: T1, Pin1 (Homo sapiens, UniProt Q13526); experiment: DELFIA displacement assay (displacement of biotinylated D-peptide from 6His-Pin1); assay type: binding; parameters: human Pin1 (residues 1-163); made in house; host or cells: E. coli BL21 (DE3) gold pLysS
T1 sequence (Q13526 whole entry, the tested form may be a part): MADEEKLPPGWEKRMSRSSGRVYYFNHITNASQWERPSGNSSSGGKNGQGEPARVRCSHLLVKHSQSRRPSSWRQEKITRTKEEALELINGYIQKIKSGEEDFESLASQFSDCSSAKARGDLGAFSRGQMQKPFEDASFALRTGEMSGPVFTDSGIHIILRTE
Source text: (§1) Important to the success of structure activity relations studies, robust biochemical, biophysical, and cell-based assays were implemented that enabled rapid and iterative evaluations of test Pin1 targeting agents. First, the DELFIA (Dissociation-enhanced lanthanide fluorescent immunoassay) assay platform was used to derive a robust heterogeneous assay to monitor the ability of test agents to displace the binding between Pin1 and the D-Peptide (Table 1), which was obtained in a biotinylated form (FIG. 10). […] Second, for an orthogonal biophysical assay denaturation thermal shift measurements were used. Pin1 was incubated with vehicle control (buffer with 1% DMSO), or test agents at protein: ligand ratio of 1:2 (20 μM protein-40 μM compound) for 10 min at 10° C. in the presence of the fluorescent dye SYPRO Orange. The samples were gradually exposed to increasing temperature (linear gradient from 10° C. to 95° C.), causing the protein to unfold. This unfolding allowed the fluorescent dye to bind to the protein's exposed hydrophobic residues, resulting in an increase in fluorescence. The thermal shift assay measures the protein's melting temperature (Tm), which is the temperature at which the protein denatures by 50%. Ligands can affect a protein target to thermal denaturation, which could manifest in a positive or negative shift in the protein denaturation temperature (ΔTm) (Bai N, Roder H, Dickson A, & Karanicolas J (2019) Scientific Reports 9; and Kranz J K & Schalk-Hihi C (2011) Fragment-Based Drug Design: Tools, Practical Approaches, and Examples 493:277-298). Using these two assays, a series of commercially available Pin1 inhibitors were profiled (Table 1). The non-covalent agent D-peptide resulted only moderately active, with an IC50 value of ˜3 μM that closely resembled the dissociation constant for this agent determined via isothermal titration calorimetry, and the ˜ 3 μM IC50 value as reported by a fluorescence polarization assay (Pinch B J, et al. (2020) Nat Chem Biol 16(9):979-987). […] (Table 1) was observed.
For the reported covalent agents such as sulfopin (Dubiella C, et al. (2021) Nat Chem Biol 17(9):954-963), BJP-07-017-3 (Pinch B J, et al. (2020) Nat Chem Biol 16(9):979-987), or KPT-6566 (Campaner E, et al. (2017) Nat Commun 8:15772), a 6-h pre-incubation period was included in the DELFIA assay to allow the covalent reaction to take place. For those agents, IC50 values that fell in the low nanomolar range were observed, consistent with what was reported previously for those compounds. […] To make those determinations in a broader panel of cancer cell lines three pancreatic cancer cell lines, BxPC3, MIA-PaCa-2, and PANC-1, the breast cancer cell line MDA-MB-231, the prostate cancer cell line PC3, and the non-small cell lung cancer cell line A549 were chosen. Each cell line represents various states of KRAS activating mutations (for example BxPC3 is wt-KRAS, while MIAPaCa2 carries the KRAS(G12C) mutation, and the PANC-1 the KRAS(G12D) (Miquel M, Zhang S, & Pilarsky C (2021) Front Cell Dev Biol 9:748631), A549 is KRAS(G12S) (Wang H, et al. (2019) EBioMedicine 49:106-117), MDA-MB-231 is KRAS(G13D) (Kim R K, et al. (2015) Exp Mol Med 47(1):e137), PC3 is wt-KRAS (Bouali S, et al. (2009) Oncol Rep 21(3):731-735). Pin1 protein levels in these cell lines were established using a specific Pin1 antibody in western blot analyses (FIG. 1A). The data confirmed that all these selected human cancer cell lines expressed a significant level of Pin1 (FIG. 1A).
Each well of 96-well streptavidin-coated plates (PerkinElmer) was incubated with 100 μL of 200 nM biotinylated D-peptide for 2 h and washed 3 times with a wash solution (PerkinElmer). Subsequently, a mixture containing Pin1, and a serial dilution of the test compounds were pre-incubated for 6 h. Eu-N1-labeled anti-6x-His antibody (PerkinElmer, 1:2000) was then added to this mixture and further incubated in the biotinylated D-peptide-bound plates for another 2 h. […]

[2] = molecular target: T1, Pin1; experiment: Denaturation thermal shift assay (SYPRO Orange); assay type: binding; parameters: human Pin1 (residues 1-163); made in house; host or cells: E. coli BL21 (DE3) gold pLysS
Source text: as §1
Thermal shift assays for Pin1 alone and in the presence of the inhibitors were obtained with a BioRad CFX Connect Real-Time PCR Detection System. Each data point was collected in quadruplicate. Each sample was prepared using buffer 50 mM Phosphate pH 7.5, 150 mM NaCl, 1% DMSO. Protein: ligand ratio used was 1:2 (20 μM protein-40 μM compound), and SYPRO Orange was used. Incubation of the Pin1 protein with the compounds was performed at 10° C. for 10 min. Samples were then heated from 10 to 95° C. with heating increments of 0.05° C., over 30 min. Fluorescence intensity was measured within the excitation/emission ranges 470-505/540-700 nm.

[3] = Table 2, ± SE of four replicates
[4] = Table 3, single transition, ± SE of four replicates

SMILES	IC50 ([1]; Table 3, ± SD from duplicates)	ΔTm (° C.) [2, 4]	further results
CN[C@@H](Cc1ccccc1)C(=O)N1CCCC[C@H]1C(=O)N[C@@H](Cc1c[nH]c2ccccc12)C(=O)N[C@@H](CCCNC(N)=O)C(N)=O [158B3] (HELM PEPTIDE1{[meF].[O=C([C@@H]1CCCCN1[*:1])[*:2]].W.[Cit].[am]}$$$$V2.0)			IC50 [1]: > 10 µM; IC50 ([1]; Table 2, in μM): > 10 µM; ΔTm (° C.) [2, 3]: 0.62 ± 0.04 °C; ΔTm ([2]; running text and figure legends): +0.62 °C
NC(=O)[C@H](Cc1c[nH]c2ccccc12)NC(=O)[C@@H]1CCCCN1C(=O)[C@H](Cc1cccc(O)c1)NC(=O)CCl [158D9] (ClAc-[mTyr]-[Pip]-Trp-NH2)	0.034 ± 0.002 µM	−8.28 ± 0.04 °C	
NC(=O)[C@H](Cc1c[nH]c2ccccc12)NC(=O)[C@@H]1CCCCN1C(=O)[C@H](Cc1ccccc1)NC(=O)CCl [158D10] (HELM PEPTIDE1{[O=C(CCl)[*:2]].F.[O=C([C@@H]1CCCCN1[*:1])[*:2]].W.[am]}$$$$V2.0)			IC50 ([1]; Table 2, ± SD from duplicates): 0.146 ± 0.019 µM; ΔTm (° C.) [2, 3]: −10.40 ± 0.04 °C
CN(C(=O)CCl)[C@@H](Cc1ccccc1)C(=O)N1CCCC[C@H]1C(=O)N[C@@H](Cc1c[nH]c2ccccc12)C(N)=O [158D11] (HELM PEPTIDE1{[O=C(CCl)[*:2]].[meF].[O=C([C@@H]1CCCCN1[*:1])[*:2]].W.[am]}$$$$V2.0)			ΔTm (° C.) [2, 3]: −10.66 ± 0.04 °C
NC(=O)[C@H](Cc1c[nH]c2ccccc12)NC(=O)[C@@H]1CCCCN1C(=O)[C@H](Cc1ccc(OP(=O)(O)O)cc1)NC(=O)CCl [158E7] (ClAc-[pY]-[Pip]-Trp-NH2)	0.327 ± 0.025 µM	−7.08 ± 0.22 °C	
O=C(CCl)N[C@@H](Cc1ccccc1)C(=O)N1CCCC[C@H]1C(=O)NCCc1c[nH]c2cc(Cl)cc(Cl)c12 [158G6]	0.327 ± 0.018 µM		share of first thermal shift peak ([2]; Table 3, percentage in brackets after first ΔTm): 70%; share of second thermal shift peak ([2]; Table 3, percentage in brackets after second ΔTm): 30%; ΔTm (° C.), first of two peaks ([2]; Table 3, two peaks observed, likely incomplete complex formation): +1.04 ± 0.08 °C; ΔTm (° C.) ([2]; Table 5, only one transition given): +1.04 ± 0.08 °C

Further lines, with some results ahead:

IC50 ([1]; Table 3, ± SD from duplicates)	ΔTm (° C.) [2, 4]	SMILES	further results
0.135 ± 0.001 µM	−9.99 ± 0.00 °C	NC(=O)[C@H](Cc1c[nH]c2ccc(O)cc12)NC(=O)[C@@H]1CCCCN1C(=O)[C@H](Cc1ccccc1)NC(=O)CCl [158F9] (ClAc-Phe-[Pip]-[Trp(5-OH)]-NH2)	
0.134 ± 0.013 µM	−10.16 ± 0.04 °C	NC(=O)[C@H](Cc1c[nH]c2ccccc12)NC(=O)[C@@H]1CCCCN1C(=O)[C@H](Cc1ccc([N+](=O)[O-])cc1)NC(=O)CCl [158G2] (ClAc-[Phe(4-NO2)]-[Pip]-Trp-NH2)	
0.132 ± 0.021 µM	−10.06 ± 0.07 °C	N#Cc1cccc(C[C@H](NC(=O)CCl)C(=O)N2CCCC[C@H]2C(=O)N[C@@H](Cc2c[nH]c3ccccc23)C(N)=O)c1 [158G3] (ClAc-[Phe(3-CN)]-[Pip]-Trp-NH2)	
0.118 ± 0.021 µM	−9.71 ± 0.07 °C	N#Cc1ccc(C[C@H](NC(=O)CCl)C(=O)N2CCCC[C@H]2C(=O)N[C@@H](Cc2c[nH]c3ccccc23)C(N)=O)cc1 [158G4] (ClAc-[Phe(4-CN)]-[Pip]-Trp-NH2)	
0.119 ± 0.006 µM	−9.29 ± 0.04 °C	NC(=O)[C@H](Cc1c[nH]c2ccccc12)NC(=O)[C@@H]1CCCCN1C(=O)[C@H](Cc1ccc(O)cc1)NC(=O)CCl [158G5] (HELM PEPTIDE1{[O=C(CCl)[*:2]].Y.[O=C([C@@H]1CCCCN1[*:1])[*:2]].W.[am]}$$$$V2.0)	
